From patent publication US11944607B2, “Treatment of progressive neurodegenerative disease with ibudilast” (MediciNova, Inc., priority 2007, dated 2024)
Values joined by “and” are separate entries in the source; they are usually repeats but may differ in a detail not shown here. Identical values can stand only once.

Key:
[1] = system: patients with multiple sclerosis; experiment: Phase II clinical trial: double-blind MRI analysis of new lesion evolution to persistent black holes; format: in vivo, human; conditions: for Mean Proportion of Lesions Evolving to PBH / Median Proportion of Lesions Evolving to PBH: new lesions at month 2, PBH at month 10
Excerpt: The study is the result of randomized, double-blind, placebo-controlled analysis of year 1 MRI data with MN-166 administration. MRIs were collected bimonthly during the one year treatment period and were re-evaluated in a double-blind manner for this new analysis. Predefined endpoints for this evaluation were the rate of evolution of new lesions to persistent black holes and remyelinated lesions. The predefined statistical endpoints were at the rate of evolution of new lesions (NL) to persistent black holes (PBH) and remyelinated lesions (RL). New T1 gadolinium-enhancing or new T2 lesions were defined as NL in the first on-study Mill at month 2. […] Hypointense lesions at month 2 or 4 that were isointense at month 10 were RL. Relative Risk (RR) of NL evolution to PBH and RL per patient was analyzed using a general linear model with the error term from the Poisson distribution.

[2] = system: patients with multiple sclerosis; experiment: Phase II clinical trial: brain volume loss by cranial MRI; format: in vivo, human
Experimental: (§1) A Phase II placebo-controlled, randomized, double-blind study was conducted using ibudilast in patients with multiple sclerosis. During year 1, patients were treated with 0 mg tid (placebo), 10 mg tid or 20 mg tid of ibudilast; during year 2, patients on placebo were randomized to receive either 10 mg tid or 20 mg tid of ibudilast (patients on 10 mg tid or 20 mg tid during the first year of the study continued on that dose during the second year). A baseline MRI scan was taken two weeks prior to treatment. Brain volume changes were assessed on an annual basis with subsequent MRI scans. MRI scans were performed every two months of the 2-year period to assess changes in T1 and T2 lesions.

[3] = system: patients with multiple sclerosis; experiment: Phase II placebo-controlled, randomized, double-blind study: relapse and disability (EDSS) outcomes; format: in vivo, human
Experimental: as §1

activated microglia = conditions: dose-dependent; cited from earlier work
[4] = system: rat animal model for Alzheimer's disease; experiment: Rat animal model for Alzheimer's disease; format: in vivo; conditions: present-tense example without data
[5] = administered systemically; cited from earlier work
[6] = system: animal model for progressive multiple sclerosis; experiment: Animal model for progressive multiple sclerosis; format: in vivo; conditions: progressive MS model; present-tense example without data
[7] = system: animal model for Parkinson's disease; experiment: Animal model for Parkinson's disease; format: in vivo; conditions: present-tense example without data
[8] = 30 mg (N = 94), 2 Years, p = 0.0832 vs Placebo to Active
[9] = 60 mg (N = 98), 2 Years, p = 0.0516 vs Placebo to Active
[10] = 2 Year Active (pooling of 30 mg and 60 mg dose groups), 2 Years, p = 0.0264 vs Placebo to Active
[11] = Placebo to Active (to 30 mg/d), 2 Years (12 months placebo, 12 months drug)
[12] = Placebo to Active (to 60 mg/d), 2 Years (12 months placebo, 12 months drug)
[13] = Placebo to Active pooled (N = 100), 2 Years

CC(C)C(=O)c1c(C(C)C)nn2ccccc12 [ibudilast, 3-isobutyryl-2-isopropylpyrazolo[1,5-a]pyridine]
# Patients w. New Lesions at Month 2 ([1]; 30 mg/day (n=94)): 64 | Mean Proportion of Lesions Evolving to PBH ([1]; 30 mg/day): 0.20 | Median Proportion of Lesions Evolving to PBH ([1]; 30 mg/day): 0.08 | Relative Risk (for Evolution to PBH) vs. placebo ([1]; 30 mg/day, p=0.074, listed as MN-166): 0.735 and 0.74 | # Patients w. New Lesions at Month 2 ([1]; 60 mg/day (n=98)): 56 | Mean Proportion of Lesions Evolving to PBH ([1]; 60 mg/day): 0.16 | Median Proportion of Lesions Evolving to PBH ([1]; 60 mg/day): 0.04 | Relative Risk (for Evolution to PBH) vs. placebo ([1]; 60 mg/day, p=0.011): 0.63 | Formation of black holes on MRI ([1]; first year of treatment, MS patients): decreased | Conversion of acute lesions to persistent black holes ([1]; overall benefit statement for extended administration): reduction | Average loss of brain volume ([2]; 60 mg a day, 1-year treatment period, placebo 1.2%, p 0.0352): 0.79% | Brain volume loss compared to the other treatment groups (cranial MRI) ([2]; 60 mg per day for 24 months, p=0.030): significantly less | Brain volume loss compared to placebo (cranial MRI) ([2]; 60 mg per day, after 12 months, p=0.04): significant reduction | Brain volume loss ([2]; extended (at least about two years) administration): reduction | Disability Progression, number of patients ([3]; 30 mg (N = 94), 1 Year): 5 | Disability Progression, percent of patients ([3]; 30 mg (N = 94), 1 Year): 5.3% | Disability Progression, number of patients [3, 8]: 10 | Disability Progression, percent of patients [3, 8]: (10.6%) | Disability Progression, number of patients ([3]; 60 mg (N = 98), 1 Year): 4 | Disability Progression, percent of patients ([3]; 60 mg (N = 98), 1 Year): 4.1% | Disability Progression, number of patients [3, 9]: 10 | Disability Progression, percent of patients [3, 9]: 10.2% | Disability progression (worsened ≥1.0 on EDSS for 4 mo) (ITT) ([3]; 60 mg/day, year 1 (Table 1), p=0.334 vs pbo): pbo - 8%, 60 mg - 4% | Annualized relapse rate ([3]; 60 mg/day, year 1, ITT, p=0.1106 vs pbo): pbo - 0.9, 60 mg - 0.7 (ITT) | IDSS (AUC of change from baseline EDSS) ([3]; 60 mg/day, year 1, ITT, p=0.1761 vs pbo): pbo: −0.05, 60 mg: −0.16 (ITT) | IDSS (AUC of change from baseline EDSS) ([3]; 60 mg/day, year 1, completers, p=0.0365 vs pbo): pbo: −0.05, 60 mg: −0.24 (completers) | Annualized relapse rate ([3]; 60 mg/day, year 1, completers, p=0.0752 vs pbo): pbo - 0.8, 60 mg - 0.6 (completers) | Time to first relapse (ITT), median ([3]; 60 mg/day, year 1, p=0.0438 vs pbo (pbo 244 days)): Median for 60 mg >1 year | EDSS (% worsened) (ITT) ([3]; 60 mg/day, year 1, p=0.1771 vs pbo): pbo - 30%, 60 mg - 21.4% | % of subjects exacerbation-free for 1 year (ITT) ([3]; 60 mg/day, p=0.033 vs pbo): pbo - 41%, 60 mg - 56.1% | Disability Progression, number of patients [3, 10]: 20/194 | Disability Progression, percent of patients [3, 10]: 10.4% | Likelihood of disability progression (≥1.0 point increase in EDSS for 4 consecutive months) ([3]; 24 months of drug vs 12 months of drug, p=0.026): less likely | Disability Progression, number of patients [3, 11]: 8/51 | Disability Progression, percent of patients [3, 11]: (15.7%) | Disability Progression, number of patients [3, 12]: 13/49 | Disability Progression, percent of patients [3, 12]: (26.5%) | Disability Progression, number of patients [3, 13]: 21/100 | Disability Progression, percent of patients [3, 13]: 21% | Decrease in the rate of sustained disability progression ([3]; extended (at least about two years) administration, compared with patients treated for less than two years): about 50% | Prolongation of time to relapse, average ([3]; extended (at least about two years) administration, compared with untreated patients): about 130 days | Production of IL-10, NGF, GDNF and NT-4 (activated microglia): enhance | Production of nitric oxide (NO), reactive oxygen species, IL-1beta, IL-6 and TNF (activated microglia): suppress | Cognitive function [4]: improvement | Blood-brain barrier crossing [5]: crosses the blood-brain barrier | Functional outcomes [6]: improvement | Locomotion [7]: improvement
